Laboratory results as given in patent US20250042882A1, “CERTAIN 3-AZABICYCLO[3.1.0]HEXANES AS GLP-1 RECEPTOR MODULATORS” (AstraZeneca AB, priority 2021, published 2025).

Key:
[1] = target: T1, human phosphodiesterase-3A (Homo sapiens, UniProt Q14432); assay: PDE3 Assay; format: biochemical; details: human recombinant enzyme expressed in Sf9 cells; formation of 5′AMP from cAMP, SPA
T1 construct: host or cells: Sf9 (Spodoptera frugiperda)
Procedure: Evaluation of the effects of compounds on the activity of the human phosphodiesterase-3A is quantified by measuring the formation of 5′AMP from cAMP using a human recombinant enzyme expressed in a clonal isolate of Spodoptera frugiperda cells (Sf9) cells.
The test compound, reference compound or water (control) are added to a buffer containing 40 mM tris(hydroxymethyl)aminomethane (Tris)/HCl (pH 7.4) and 8 mM MgCl2, 450 nMcAMP and 0.25 μCi [^3H]cAMP.
Thereafter, the reaction is initiated by addition of the enzyme (about 1 U) and the mixture is incubated for 20 min at 22° C.
For basal control measurements, the enzyme is omitted from the reaction mixture.
Following incubation SPA beads are added. After 30 min at 22° C. under shaking, the amount of [^3H]5′AMP is quantified with a scintillation counter (Topcount, Packard).
The results are expressed as a percent inhibition of the control enzyme activity. The standard inhibitory reference compound is milrinone (CAS number 78415-72-2), which is tested in each experiment at several concentrations to obtain an inhibition curve from which its IC50 value is calculated.

[2] = target: T2, GLP-1R (Homo sapiens, UniProt P43220); assay: EndoC cAMP Accumulation Assay; format: cell-based; details: EndoC-βH1 human pancreatic β cell line; HTRF cAMP accumulation
T2 construct: host or cells: EndoC-βH1 human pancreatic beta cell line
From the text: EndoC cAMP Accumulation Assay
A HTRF cAMP assay (cAMP Gs dynamic kit; CisoBio Cat #62AM4PEJ) was used to identify agonists of GLP-1R in a pancreatic insulinoma cell line (EndoC-⊕H1). […] EndoC-PHlcells have detectable GLP-1R messenger ribonucleic acid (mRNA) as detected by quantitative polymerase chain reaction (qPCR). […] The EndoC-PH1 cell line is a valid model of human beta cells and applicable for screenings to identify novel drug target candidates (Mol. Metab., 2018, 8, 144-157). CisBio HTRF cAMP kits are based on a competitive immunoassay using cryptate-labelled anti-cAMP antibody and d2-labeled cAMP. The detection kit is intended for the direct quantitative determination of cAMP. The specific signal (i.e. energy transfer) is inversely proportional to the concentration of cAMP in the standard or sample. Test compounds (10 mM in DMSO) were diluted into assay buffer (HBSS (Sigma #H8264) supplemented with 25 mM HEPES (Gibco #15630, pH 7.4), 0.1% BSA (Sigma #A3059) and 0.5 mM IBMX (Sigma #I7018) included fresh on the day of the assay) into 96 well U-bottom plates (Greiner #650201). Diluted compounds were transferred to ECHO source polypropylene plates (Labcyte #P-05525) and dose response curves were dispensed acoustically using ECHO 550 into black shallow-well u-bottom 384-well HTRF Assay Plates (Corning 4514).
Cryovials of EndoC-H1 (supplied at 1×10e^7 cells/vial) were used directly for screening. The cryovials and were removed from N2(l) and thawed rapidly in a 37° C. water bath. The cells were resuspended in assay buffer and centrifuged at 300 g for 5 min. Cells were resuspended in assay buffer at the appropriate concentration, typically at 12e5 cells per mL (3000 cells per well, dependent on cell batch) and 2.5 μL diluted cells were added to all wells of destination plate by Multidrop combi reagent dispenser (Thermofisher). The plates were incubated at rt for 30 min. The assay was stopped by adding 2.5 μL anti-cAMP cryptate solution to all wells and 2.5 μL cAMP-d2 solution (both diluted 1:20 in lysis buffer) to columns 1-22 by Combi drop. A volume of 2.5 μL cAMP-d2 solution was added to wells E23 to P24 and 2.5 μL lysis buffer added to wells A23 to D24 by multichannel pipette. The plates were incubated at rt for 1 h and read on an Envision plate reader using excitation wavelength of 320 mn and emission of 590 nm and 660 nm.
Raw data from Envision is converted to % DeltaF according to the manufacturer's instructions. Dose response curves are analysed via 4-Parameter Logistical Analysis and assay plate Z′ values obtained. Samples are graphed as percentage (%) activation plots compared to GIP (1-42, Bachem H-5645) with assay window defined by negative control as basal cell cAMP levels and positive control are defined by maximum GIP (82.5 nM) signal. GLP-1 (7-36 amide, Bachem H-6795) dose response curve was included on all plates.

[3] = target: T3, human GLP-1R receptor (Homo sapiens, UniProt P43220, L260F); assay: CHOK1 GLP-1R cAMP Assay; format: cell-based; details: CHO-K1 cell line stably expressing human GLP-1R (Leu260Phe variant); HTRF cAMP; agonist activity
T3 construct: expressed in transfected cells; host or cells: CHO-K1 (ATCC CCL-61)
Procedure: A cell line stably expressing the human GLP-1R receptor (NM_002062.5, including the naturally-occurring variant Leu260Phe) in a CHO-K1 (ATCC® CCL-61™) was used for assay.
GLP-1 receptor mediated agonist activity was determined in a cell-based assay measuring cyclic adenosine monophosphate (cAMP) levels in cells using Homogeneous Time-Resolved Fluorescence (HTRF) cAMP detection kit (CisBio catalog #62AM4PEC, cAMP Gs Dynamic range kit). The cAMP detection method is based on a competitive immunoassay, in which cAMP produced by the cells and cAMP labeled with the dye d2 compete for binding to a Europium-Cryptate-labeled anti-cAMP antibody. The specific HTRF signal is inversely proportional to the concentration of cAMP.
Compounds were added to individual well in 384 well-assay plates (Greiner #784076) using an Echo (LabCyte) dispenser from 10 mM stocks. Varying concentration of compounds were added to wells, and DMSO was used to normalize each well to a volume of 100 nL. A dose response curve of GLP-1(7-36)NH2 (Bachem H-6795) was included in each run. 5 μL of cAMP concentration response standards are applied in specified wells in the assay plates. Cryo-preserved cells are thawed and resuspended in assay buffer pre-heated to 37° C. (20 mM HEPES pH 7.4, 1× Hank's Balanced Salt Solution (HBSS, Life Technologies #14065) supplemented with 0.1% (w/v) bovine serum albumin (Sigma, A-7030). Cells were centrifuged at 250*g for 5 min at rt, and resuspended in room tempered assay buffer to a final density of 0.16*10^6 cell/mL, to deliver 800 cells/well. 5 μL of assay buffer with 1 mM 3-isobutyl-1-methylxanthin (IBMX; Sigma cat I-7018) was dispensed per well in assay plates using a multidrop combi (Thermo Scientific) subsequently 5 μL of cell suspension was distributed to relevant wells in the assay using a multidrop dispenser. Assay plates were incubated 20 min at rt.
Detection reagents, Europium-Cryptate-labeled anti-cAMP antibody and cAMP labeled with the dye d2, are diluted in lysis buffer, provided by the manufacturer. 5 μL of each detection reagent is supplemented to each assay well using a multidrop dispenser. Assay plates are incubated in the dark for at least one h. The HTRF signal is measured using the HTRF module (excitation: 337 nm, emission A: 665 nm and emission B: 620 nm) in Pherastar FSX (BMG Labtech).
Raw data were converted to pM cAMP using the cAMP standard curve included in each run.
Converted data were further analyzed in Genedata Screener (Genedata) and EC50 determinations were made from agonist dose-response curves analyzed with a curve fitting program using a 4-parameter logistic dose response equation (Equation y=A+((B−A)/1+((C/x)^D))) where A is no stimulation, B is full stimulation, C is the EC50 and D is the Hill slope). The percent effect was determined relative to a saturating concentration of a full GLP-1R agonist (GLP-1(7-36)NH2 has 100% effect in this assay setup).

T1 sequence (Q14432 whole entry): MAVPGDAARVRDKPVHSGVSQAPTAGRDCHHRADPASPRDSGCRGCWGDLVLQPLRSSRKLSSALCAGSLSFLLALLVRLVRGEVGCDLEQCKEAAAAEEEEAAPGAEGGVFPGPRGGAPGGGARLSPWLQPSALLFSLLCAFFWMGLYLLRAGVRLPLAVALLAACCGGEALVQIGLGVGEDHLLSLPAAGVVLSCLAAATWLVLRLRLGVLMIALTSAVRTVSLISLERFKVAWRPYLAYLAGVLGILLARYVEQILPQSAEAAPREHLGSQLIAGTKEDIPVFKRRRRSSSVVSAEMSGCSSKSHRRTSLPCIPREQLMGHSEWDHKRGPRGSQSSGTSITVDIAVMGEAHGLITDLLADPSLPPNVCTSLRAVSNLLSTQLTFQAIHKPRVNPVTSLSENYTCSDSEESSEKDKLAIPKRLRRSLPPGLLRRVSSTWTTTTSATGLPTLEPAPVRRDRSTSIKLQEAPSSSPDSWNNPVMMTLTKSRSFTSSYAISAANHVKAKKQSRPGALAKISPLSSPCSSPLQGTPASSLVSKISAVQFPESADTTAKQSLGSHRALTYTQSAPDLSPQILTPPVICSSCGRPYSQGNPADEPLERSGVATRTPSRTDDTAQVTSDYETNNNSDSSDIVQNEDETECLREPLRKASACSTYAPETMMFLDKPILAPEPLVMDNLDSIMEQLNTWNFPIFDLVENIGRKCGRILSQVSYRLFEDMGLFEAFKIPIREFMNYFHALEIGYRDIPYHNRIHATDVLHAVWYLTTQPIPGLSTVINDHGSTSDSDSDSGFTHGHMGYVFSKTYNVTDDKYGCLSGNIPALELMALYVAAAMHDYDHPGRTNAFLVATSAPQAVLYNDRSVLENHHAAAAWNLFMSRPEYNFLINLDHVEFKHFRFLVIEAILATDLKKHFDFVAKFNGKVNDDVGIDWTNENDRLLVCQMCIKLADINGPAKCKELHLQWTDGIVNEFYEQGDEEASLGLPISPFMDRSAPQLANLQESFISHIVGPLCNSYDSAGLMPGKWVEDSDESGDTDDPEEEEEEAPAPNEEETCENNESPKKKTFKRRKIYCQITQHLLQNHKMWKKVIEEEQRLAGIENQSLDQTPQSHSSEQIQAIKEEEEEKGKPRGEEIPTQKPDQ
T2 sequence (P43220 24-463): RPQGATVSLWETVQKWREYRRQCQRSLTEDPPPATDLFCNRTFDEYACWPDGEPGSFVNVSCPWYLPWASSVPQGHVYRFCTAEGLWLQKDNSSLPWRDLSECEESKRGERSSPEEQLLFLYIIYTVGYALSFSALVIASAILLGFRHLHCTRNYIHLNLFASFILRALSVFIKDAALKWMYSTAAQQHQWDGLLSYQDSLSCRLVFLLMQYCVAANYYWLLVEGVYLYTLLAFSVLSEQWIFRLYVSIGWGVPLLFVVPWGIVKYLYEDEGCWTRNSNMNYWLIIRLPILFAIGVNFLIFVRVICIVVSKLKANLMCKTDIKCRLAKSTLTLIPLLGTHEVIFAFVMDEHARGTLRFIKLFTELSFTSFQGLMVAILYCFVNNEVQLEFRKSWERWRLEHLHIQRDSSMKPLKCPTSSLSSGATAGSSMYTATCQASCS
T3 sequence (P43220 24-463 L260F): as the sequence (P43220 24-463) above, with L237F counted along it

Row | Compound | IC50 [1] | EC50 [2] | EC50 [3]
1 | N#Cc1ccc(COc2cccc(C3CCN(Cc4nc5ccc(C(=O)O)cc5n4C[C@@H]4CCO4)CC3)n2)c(F)c1 [Ref Comp B, reference compound] | 11000 nM |  | 
2 | 2-(((1R,5S6R)-6-((R*)-2-(5-Chloropyridin-2-yl)-5-fluoro-2-methylbenzo[d][1,3]dioxol-4-yl)-3-azabicyclo[3.1.0]hexan-3-yl)methyl)-4-fluoro-1-(((S)-oxetan-2-yl)methyl)-1H-benzo[d]imidazole-6-carboxylic acid [Example 10a] | > 100000 nM | 13 nM | 19 nM
3 | COc1cc(C(=O)O)cc2c1nc(CN1C[C@@H]3[C@H](C1)[C@H]3c1cccc3c1O[C@](C)(c1ccc(Cl)cc1F)O3)n2CC1CCO1 (relative stereo) [Example 2, 2-(((1R,5S,6R)-6-((R*)-2-(4-Chloro-2-fluorophenyl)-2-methylbenzo[d][1,3]dioxol-4-yl)-3-azabicyclo[3.1.0]hexan-3-yl)methyl)-4-methoxy-1-(((S)-oxetan-2-yl)methyl)-1H-benzo[d]imidazole-6-carboxylic acid] | > 10000 nM | 15 nM | 14 nM
4 | C[C@@]1(c2ccc(C#N)cc2F)Oc2cccc([C@H]3[C@@H]4CN(Cc5nc6c(F)cc(C(=O)O)cc6n5C[C@@H]5CCO5)C[C@@H]43)c2O1 (relative stereo) [Example 11, 2-((1R,5S,6R)-6-((R*)-2-(4-Cyano-2-fluorophenyl)-2-methylbenzo[d][1,3]dioxol-4-yl)-3-azabicyclo[3.1.0]hexan-3-yl)methyl)-4-fluoro-1-(((S)-oxetan-2-yl)methyl)-1H-benzo[d]imidazole-6-carboxylic acid] |  | 57 nM | 61 nM
5 | 4-Chloro-2-(((1R,5S,6R)-6-((R*)-2-(5-chloropyridin-2-yl)-5-fluoro-2-methylbenzo[d][1,3]dioxol-4-yl)-3-azabicyclo[3.1.0]hexan-3-yl)methyl)-1-(((S)-oxetan-2-yl)methyl)-1H-benzo[d]imidazole-6-carboxylic acid [Example 8b] |  | 9.6 nM | 8.2 nM
6 | COc1cc(C(=O)O)cc2c1nc(CN1C[C@@H]3[C@H](C1)[C@H]3c1c(F)ccc3c1OC(C)(c1ccc(Cl)cn1)O3)n2C[C@@H]1CCO1 (stereo partly drawn) [Example 6, 2-(((1R,5S,6R)-6-(2-(5-Chloropyridin-2-yl)-5-fluoro-2-methylbenzo[d][1,3]dioxol-4-yl)-3-azabicyclo[3.1.0]hexan-3-yl)methyl)-4-methoxy-1-(((S)-oxetan-2-yl)methyl)-1H-benzo[d]imidazole-6-carboxylic acid] |  | 19 nM | 31 nM
7 | 4-Chloro-2-(((1R,5S,6R)-6-((R*)-2-(5-chloropyridin-2-yl)-5-fluoro-2-methylbenzo[d][1,3]dioxol-4-yl)-3-azabicyclo[3.1.0]hexan-3-yl)methyl)-1-(((S)-oxetan-2-yl)methyl)-1H-benzo[d]imidazole-6-carboxylic acid [Example 8a] |  | 280 nM | 150 nM
8 | 2-(((1R,5S,6R)-6-((R*)-2-(5-Chloropyridin-2-yl)-5-fluoro-2-methylbenzo[d][1,3]dioxol-4-yl)-3-azabicyclo[3.1.0]hexan-3-yl)methyl)-4-fluoro-1-(((S)-oxetan-2-yl)methyl)-1H-benzo[d]imidazole-6-carboxylic acid [Example 10b] |  | 1900 nM | 680 nM
